According to PubChem BioAssay AID1259407 (Chemical Carcinogenesis Research Information System (CCRIS), 2018):
The source made the active and inactive calls. How the calls were made is not given here.

System: CCRIS mutagenicity, Ames/micronucleus/aberration tests
Assay: CCRIS mutagenicity studies

For `C=CCNCC=C`, which mutagenic call (Test System: AMES SALMONELLA TYPHIMURIUM, Strain/Indicator: TA98, Metabolic Activation: HAMSTER, LIVER, S-9, AROCLOR 1254 (10%), Method: PREINCUBATION) is on record?
Its mutagenic call is “inactive; negative”.

What about the mutagenic call (Test System: AMES SALMONELLA TYPHIMURIUM, Strain/Indicator: TA98, Metabolic Activation: NONE, Method: PREINCUBATION) of the same molecule?
The mutagenic call was “inactive; negative”.

What about the mutagenic call (Test System: AMES SALMONELLA TYPHIMURIUM, Strain/Indicator: TA98, Metabolic Activation: RAT, LIVER, S-9, AROCLOR 1254 (10%), Method: PREINCUBATION) of the same molecule?
Its mutagenic call is “inactive; negative”.

What about the mutagenic call (Test System: AMES SALMONELLA TYPHIMURIUM, Strain/Indicator: TA100, Metabolic Activation: HAMSTER, LIVER, S-9, AROCLOR 1254 (10%), Method: PREINCUBATION) of the same molecule?
Its mutagenic call is “inactive; negative”.

And the mutagenic call (Test System: AMES SALMONELLA TYPHIMURIUM, Strain/Indicator: TA100, Metabolic Activation: NONE, Method: PREINCUBATION)?
Its mutagenic call is “inactive; negative”.

And the mutagenic call (Test System: AMES SALMONELLA TYPHIMURIUM, Strain/Indicator: TA100, Metabolic Activation: RAT, LIVER, S-9, AROCLOR 1254 (10%), Method: PREINCUBATION)?
The mutagenic call was “inactive; negative”.

And the mutagenic call (Test System: AMES SALMONELLA TYPHIMURIUM, Strain/Indicator: TA1535, Metabolic Activation: HAMSTER, LIVER, S-9, AROCLOR 1254 (10%), Method: PREINCUBATION)?
The mutagenic call was “inactive; negative”.

What about the mutagenic call (Test System: AMES SALMONELLA TYPHIMURIUM, Strain/Indicator: TA1535, Metabolic Activation: NONE, Method: PREINCUBATION) of the same molecule?
The mutagenic call was “inactive; negative”.

What about the mutagenic call (Test System: AMES SALMONELLA TYPHIMURIUM, Strain/Indicator: TA1535, Metabolic Activation: RAT, LIVER, S-9, AROCLOR 1254 (10%), Method: PREINCUBATION) of the same molecule?
Its mutagenic call is “inactive; negative”.

What about the mutagenic call (Test System: AMES SALMONELLA TYPHIMURIUM, Strain/Indicator: TA1537, Metabolic Activation: HAMSTER, LIVER, S-9, AROCLOR 1254 (10%), Method: PREINCUBATION) of the same molecule?
Its mutagenic call is “inactive; negative”.

And the mutagenic call (Test System: AMES SALMONELLA TYPHIMURIUM, Strain/Indicator: TA1537, Metabolic Activation: NONE, Method: PREINCUBATION)?
Its mutagenic call is “inactive; negative”.

And the mutagenic call (Test System: AMES SALMONELLA TYPHIMURIUM, Strain/Indicator: TA1537, Metabolic Activation: RAT, LIVER, S-9, AROCLOR 1254 (10%), Method: PREINCUBATION)?
Its mutagenic call is “inactive; negative”.

`C=CCC` was tested. Which mutagenic call (Test System: AMES SALMONELLA TYPHIMURIUM, Strain/Indicator: TA98, Metabolic Activation: NONE, Method: GAS EXPOSURE) did it give?
Its mutagenic call is “inactive; negative”.

And the mutagenic call (Test System: AMES SALMONELLA TYPHIMURIUM, Strain/Indicator: TA98, Metabolic Activation: RAT LIVER S-9, PHENOBARBITAL AND BETA-NAPHTHOFLAVONE (40%), Method: GAS EXPOSURE)?
Its mutagenic call is “inactive; negative”.

What about the mutagenic call (Test System: AMES SALMONELLA TYPHIMURIUM, Strain/Indicator: TA100, Metabolic Activation: NONE, Method: GAS EXPOSURE) of the same molecule?
The mutagenic call was “inactive; negative”.

What about the mutagenic call (Test System: AMES SALMONELLA TYPHIMURIUM, Strain/Indicator: TA100, Metabolic Activation: RAT LIVER S-9, PHENOBARBITAL AND BETA-NAPHTHOFLAVONE (40%), Method: GAS EXPOSURE) of the same molecule?
The mutagenic call was “inactive; negative”.

What about the mutagenic call (Test System: AMES SALMONELLA TYPHIMURIUM, Strain/Indicator: TA1535, Metabolic Activation: NONE, Method: GAS EXPOSURE) of the same molecule?
Its mutagenic call is “inactive; negative”.

What about the mutagenic call (Test System: AMES SALMONELLA TYPHIMURIUM, Strain/Indicator: TA1535, Metabolic Activation: RAT LIVER S-9, PHENOBARBITAL AND BETA-NAPHTHOFLAVONE (40%), Method: GAS EXPOSURE) of the same molecule?
Its mutagenic call is “inactive; negative”.

And the mutagenic call (Test System: AMES SALMONELLA TYPHIMURIUM, Strain/Indicator: TA1537, Metabolic Activation: NONE, Method: GAS EXPOSURE)?
The mutagenic call was “inactive; negative”.

And the mutagenic call (Test System: AMES SALMONELLA TYPHIMURIUM, Strain/Indicator: TA1537, Metabolic Activation: RAT LIVER S-9, PHENOBARBITAL AND BETA-NAPHTHOFLAVONE (40%), Method: GAS EXPOSURE)?
Its mutagenic call is “inactive; negative”.

And the mutagenic call (Test System: E.COLI, Strain/Indicator: WP2UVRA, Metabolic Activation: NONE, Method: GAS EXPOSURE)?
The mutagenic call was “inactive; negative”.

And the mutagenic call (Test System: E.COLI, Strain/Indicator: WP2UVRA, Metabolic Activation: RAT LIVER S-9, PHENOBARBITAL AND BETA-NAPHTHOFLAVONE (40%), Method: GAS EXPOSURE)?
The mutagenic call was “inactive; negative”.

For `C=CCNC1=C2C[C@@H](C)C[C@H](OC)[C@H](O)[C@@H](C)/C=C(\C)[C@H](OC(N)=O)[C@@H](OC)/C=C\C=C(/C)C(=O)NC(=CC1=O)C2=O`, which mutagenic call (Test System: Mouse lymphoma, Strain/Indicator: L5178Y (tk+/tk-), Metabolic Activation: None, Method: Suspension/plate) is on record?
Its mutagenic call is “active; positive”.

And the mutagenic call (Test System: Mouse lymphoma, Strain/Indicator: L5178Y (tk+/tk-), Metabolic Activation: Rat, Liver, S-9, Aroclor 1254, Method: Suspension/plate)?
Its mutagenic call is “inactive; negative”.

How did the mutagenic call (Test System: UDS RODENT CELLS, Strain/Indicator: THY INCORP (NON-S-PHASE), Metabolic Activation: NONE, Method: AUTORADIOGRAPHY) turn out when `CC(C)NCC(=O)NC(=O)C=[N+]=[N-]` was run?
The mutagenic call was “active; positive”.

What does the source list for `CN[C@H]1[C@@H](O[C@@H]2C3CC#CC4O[C@@]4(C4COC(=O)O4)C#CC3=C[C@H]2OC(=O)c2c(O)ccc3c(C)cc(OC)cc23)O[C@H](C)[C@H](O)[C@@H]1O` (stereo partly specified)?
mutagenic call (Test System: AMES SALMONELLA TYPHIMURIUM, Strain/Indicator: TA98, Metabolic Activation: NONE, Method: STANDARD PLATE): inactive; negative; mutagenic call (Test System: AMES SALMONELLA TYPHIMURIUM, Strain/Indicator: TA100, Metabolic Activation: NONE, Method: STANDARD PLATE): inactive; negative; mutagenic call (Test System: CHINESE HAMSTER OVARY, Strain/Indicator: CHO-D422 (APRT)/8-AZAADENINE, Metabolic Activation: NONE): active; positive; mutagenic call (Test System: CHINESE HAMSTER OVARY, Strain/Indicator: CHO-K1/6-THIOGUANINE, Metabolic Activation: NONE): active; positive; mutagenic call (Test System: E. COLI, Strain/Indicator: WP2 (HCR), Metabolic Activation: NONE, Method: STANDARD PLATE): active; positive; mutagenic call (Test System: E. COLI, Strain/Indicator: WP2, Metabolic Activation: NONE, Method: PREINCUBATION): active; positive; mutagenic call (Test System: E. COLI, Strain/Indicator: WP2, Metabolic Activation: NONE, Method: SPOT): active; positive; mutagenic call (Test System: E. COLI, Strain/Indicator: WP2 UVRA, Metabolic Activation: NONE, Method: PREINCUBATION): active; positive; mutagenic call (Test System: E. COLI, Strain/Indicator: WP2 UVRA, Metabolic Activation: NONE, Method: SPOT): active; positive; mutagenic call (Test System: UDS HUMAN CELLS, Strain/Indicator: THY INCORP (NON-S-PHASE), Metabolic Activation: NONE, Method: AUTORADIOGRAPHY): active; positive; mutagenic call (Test System: UDS HUMAN CELLS, Strain/Indicator: THY INCORP (NON-S-PHASE), Metabolic Activation: NONE, Method: LIQUID SCINTILLATION COUNTING): active; positive
